For data set [1], the target named is T1, human P-selectin (Homo sapiens, UniProt P16109).
T1 construct: purchased R&D Systems Europe Ltd., Abingdon, United Kingdom
Put plainly: Competition assay with biotin-PAA-Le^a-SO3H. Conditions: read-out: IC50, inhibition of biotin-PAA-Le^a-SO3 binding to human P-selectin. The procedure:
(§1) Gallic acid (Acros, Geel, Belgium) was assayed for its ability to inhibit TM11-PO binding to human P-selectin. […] For competition studies, a 96 wells microtiter plate (high binding, flat bottom, Costar, Corning, U.S.A.) was coated overnight at 4° C. with 10 μg/ml goat anti-human IgG (Fc specific) (Sigma-Aldrich, Zwijndrecht, the Netherlands) in coating buffer (50 mM NaHCO3, pH 9.6). Subsequently, wells were washed with assay buffer and incubated for 1 hour at 37° C. with blocking buffer (3% BSA in assay buffer). After washing with assay buffer, the wells were incubated for 2 hours at 37° C. with the human P-selectin IgG-Fc chimera (R&D Systems Europe Ltd., Abingdon, United Kingdom) (0.3 μg/ml). Subsequently, wells were washed with assay buffer and incubated for 1 hour at 4° C. with the TM11-PO complex. The wells were washed six times with washing buffer (0.1% Tween 20 in assay buffer). […] (TMB)/hydrogen peroxide (H2O2) (Pierce, Rochford, U.S.A.) was added and wells were incubated at room temperature for 15 minutes. The reaction was halted by addition of 2 M H2SO4 and the absorbance was measured at 450 nm.
(§2) To be able to test gallic acid binding also to other members of the selectin family (i.e. E- and L-selectin), biotin-PAA-Le^a-SO3H (Synthesone, Munich, Germany) instead of TM11-PO was used as ligand in the competition assay. This polyacrylamide (PAA) based polymer with attached sulfo-Lewis A groups, is an established selectin ligand.
(§3) Experimentally, the same procedure was used as in example 7 however with the following differences. After washing with assay buffer, the wells were incubated for 2 hours at 37° C. with the human P-selectin IgG-Fc chimera, mouse P-selectin IgG-Fc chimera, human L-selectin IgG-Fc chimera and human E-selectin IgG-Fc chimera respectively (all from R&D Systems Europe Ltd., Abingdon, United Kingdom) (0.3 μg/ml). Subsequently the wells of the microtiter plate were incubated with biotin-PAA-Le^a-SO3H (0.33 μg/ml) for 2 hours at 37° C., instead of with the TM11-PO-complex.

A further data set deals with platelets. In words: TRAP-induced platelet aggregation in platelet-rich plasma. It is filed as cell-based, human. Conditions: for Maximal platelet aggregation: TRAP 6.5 μM, human PRP. The protocol: Freshly drawn venous blood from healthy volunteers was collected with an informed consent into 1/10 volume of 3.2% tri-sodium citrate (w/v). These donors denied to have taken aspirin or other platelet function inhibitors during the previous ten days. Platelet-rich plasma (PRP) was prepared by centrifugation (150 g, 15 min, 22° C.). PRP was adjusted to a final concentration of 200,000 platelets/μl with platelet-poor plasma (PPP), which was obtained after an additional centrifugation step of the remaining blood (1100 g, 15 min, 22° C.). PRP was left for 30 min at 37° C. to ensure a resting state of the platelets. Afterwards, PRP was incubated for 5 min with different concentrations of gallic acid, EGCG or solvent at 37° C. Samples were transferred to an aggregometer (Kordia BV, Leiden, The Netherlands) to determine platelet aggregation at a stirring speed of 900 r.p.m. Platelet aggregation was initiated after preincubation with different concentrations of GA or EGCG (0, 50, 250 and 500 μM) by the addition of thrombin receptor activating peptide (TRAP, 6.5 μM, 37° C.).

In data set [2] the test system is leukocyte-platelet conjugates rolling over femoral vein endothelium. In words: In vivo rolling/tumbling of leukocyte-platelet conjugates (rosettes) over femoral vein endothelium. Also on record: species or system mice. The procedure: Human blood was collected on 1:6 acid-citrate-dextrose (ACD: 93 mM trisodium citrate, 7 mM citric acid, 140 mM dextrose, pH 6.5) and 1 μM tirofiban. Human platelet rich plasma (PRP) was prepared via centrifugation at 150 g for 15 min. Murine blood was collected on 20 μg/ml hirudin and was centrifuged at 800 g for 30 sec, immediately followed by a second centrifugation at 150 g for 5 min to prepare PRP. The isolated PRP (human or murine) was then mixed with two volumes of ACD and recentrifuged at 800 g for 5 min. Subsequently, washed platelets were resuspended in HEPES-Tyrode's buffer (5 mM HEPES, 137 mM NaCl, 2.7 mM KCl, 12 mM NaHCO3, 0.36 mM NaH2PO4, 1% (w/v) glucose, pH 7.3) containing 1% (v/v) human serum albumin (HAS) at 10^6 platelets/μl. They were then incubated for 20 min at 37° C. with 5 μM calcein-AM, an acetoxymethyl ester, fluorescent once cleaved by non-specific esterases inside the cell, with no detectable effect on platelet function in our perfusion studies. The platelet suspension was then centrifuged at 700 g for 25 min and fluorescent platelets were resuspended in HEPES-Tyrode's buffer, and murine platelets were injected as such in mice.
All animal experiments were reviewed and approved by the Institutional Review Board of the University of Leuven and were performed in compliance with the guidelines of the International Society on Thrombosis and Haemostasis (Giles AR). For the study of platelet-assisted leukocyte rolling over the endothelial surface of blood vessels in vivo, on-line video microscopy was performed in mice. […] mice (6-12 weeks old) were anesthetized with Nembutal (70 mg/kg) via i.p. injection, and the jugular vein was catheterized. The femoral vein was exposed and mice were positioned on the table of an inverted epifluorescent microscope, such that the blood circulation in the femoral vein could be visualized through a Cohu CCD video camera. Fluorescent-labeled murine platelets were then injected in the catheterized jugular vein (500×10^6 platelets in 200 μl) and baseline rolling was recorded for the labeled platelets. […] After 5 min, the collagen-induced rolling and tumbling of leukocyte-platelet conjugates was then recorded for 10 min. The number of rosettes rolling were counted and their average tumbling speed was calculated from the registered movies. To address the effect of gallic acid on rosette rolling, it was infused 5 min prior to collagen administration and the rosette rolling was analysed as in the controls. […] Tumbling rosettes were counted 10 min after the collagen injection, before and after gallic acid infusion of 0.75 to 7.5 mg/kg.h. […]

Data set [3] has as its system HL60 cells / human P-selectin expressing Chinese hamster ovary cells (CHO-P). Put plainly: Dynamic interactions between HL60 cells and CHO-P monolayers in parallel-plate perfusion chamber. It is filed as cell-based. The procedure: Chinese hamster ovary (CHO) cells stably transfected with human P-selectin (CHO—P) were kindly donated by Dr. Modderman (University of Amsterdam, Amsterdam, the Netherlands). Cells were grown in DMEM (BioWhittaker Europe, Verviers, Belgium) containing 10% foetal calf serum (FCS) (BioWitthaker), 5 mM L-glutamine, 20,000 units penicillin/streptomycin (BioWhittaker) and 5 mM non-essential amino acids (Gibco, Paisley, United Kingdom). Flasks with cells were incubated at 37° C. in 5% CO2 for 3 or 4 days until cells had grown nearly confluent.
HL60 cells were from ATCC and grown in RPMI 1640 medium (BioWhittaker) with 10% FCS, 5 mM L-glutamine and 20,000 units penicillin/streptomycin.
Dynamic interactions between […], displaying a high expression of PSGL-1, the natural P-selectin ligand, and human P-selectin expressing Chinese hamster ovary cell (CHO—P cells) monolayers grown onto glass coverslips coated with 30 μg/ml collagen S (type I) (Roche Diagnosis, Brussels, Belgium) were analysed in a parallel-plate perfusion chamber with a method adapted from G. Theilmeier (Blood 1999, 94: 2725-2734). The coverslip constituted the bottom of the chamber and the actual chamber was formed by a 254-μm height silicon rubber gasket designed with a conically shaped flow path, thus resulting in a 3-fold increase of wall shear rate from the inlet of the chamber to the outlet. Calcein-AM labeled HL60 cells, suspended in RPMI (0.5×10^6/ml) were perfused at 37° C. and at a flow rate of 1 ml/min with an inverted syringe pump (Harvard Instruments, South Natick, Mass., U.S.A.). The flow chamber was mounted on the table platform of an inverted epifluorescence microscope (Diaphot; Nikon, Melville, N.Y., U.S.A.) coupled to a Cohu CCD video camera (COHU Inc, San Diego, Calif., U.S.A.) and HL60 cell translocation over CHO—P monolayers were measured at wall shear rates of 300 and 600 s-1. Gallic acid was added to HL60 cell suspensions 2 minutes before the onset of perfusion. To prevent oxidation, the gallic acid solution was prepared freshly. Real time movies of 12 seconds (10 images per second), recorded at predefined positions in the flow path corresponding to chosen wall shear rates were stored and digitised with a Scion LG3 frame grabber (Scion Corp, Frederick, Mich., U.S.A.). The average velocity of HL60 cells rolling over the CHO—P cells was calculated from the rolling distance of the HL60 cells in a 1 second timeframe, using the NIH Image program version 6.1. The number of adhered HL60 cells was counted from pictures taken during the same experiment.

For data set [4], the target named is T1, human P-selectin. In words: Competition assay of gallic acid with TM11-PO. It is filed as binding. The protocol: as §1
For the next data set, the target named is T2, mouse P-selectin (Mus musculus, UniProt Q01102).
T2 construct: purchased R&D Systems Europe Ltd., Abingdon, United Kingdom
In words: Competition assay with biotin-PAA-Le^a-SO3H. It is filed as binding. Conditions: biotin-PAA-Le^a-SO3H ligand. The protocol: as §1, §2, §3

The next data set concerns the target T3, human L-selectin (Homo sapiens, UniProt P14151).
T3 construct: purchased R&D Systems Europe Ltd., Abingdon, United Kingdom
In words: Competition assay with biotin-PAA-Le^a-SO3H. It is filed as binding. The procedure: as §1, §2, §3

For the next data set, the target named is T4, human E-selectin (Homo sapiens, UniProt P16581).
T4 construct: purchased R&D Systems Europe Ltd., Abingdon, United Kingdom
In words: Competition assay with biotin-PAA-Le^a-SO3H. It is filed as binding. As to conditions: concentrations up to 1 mM; biotin-PAA-Le^a-SO3H ligand. The protocol:
as §1, §2, §3

pIC50: −log10 of the molar value.

T1 sequence (P16109 with tags, fused parts or gaps limits assumed): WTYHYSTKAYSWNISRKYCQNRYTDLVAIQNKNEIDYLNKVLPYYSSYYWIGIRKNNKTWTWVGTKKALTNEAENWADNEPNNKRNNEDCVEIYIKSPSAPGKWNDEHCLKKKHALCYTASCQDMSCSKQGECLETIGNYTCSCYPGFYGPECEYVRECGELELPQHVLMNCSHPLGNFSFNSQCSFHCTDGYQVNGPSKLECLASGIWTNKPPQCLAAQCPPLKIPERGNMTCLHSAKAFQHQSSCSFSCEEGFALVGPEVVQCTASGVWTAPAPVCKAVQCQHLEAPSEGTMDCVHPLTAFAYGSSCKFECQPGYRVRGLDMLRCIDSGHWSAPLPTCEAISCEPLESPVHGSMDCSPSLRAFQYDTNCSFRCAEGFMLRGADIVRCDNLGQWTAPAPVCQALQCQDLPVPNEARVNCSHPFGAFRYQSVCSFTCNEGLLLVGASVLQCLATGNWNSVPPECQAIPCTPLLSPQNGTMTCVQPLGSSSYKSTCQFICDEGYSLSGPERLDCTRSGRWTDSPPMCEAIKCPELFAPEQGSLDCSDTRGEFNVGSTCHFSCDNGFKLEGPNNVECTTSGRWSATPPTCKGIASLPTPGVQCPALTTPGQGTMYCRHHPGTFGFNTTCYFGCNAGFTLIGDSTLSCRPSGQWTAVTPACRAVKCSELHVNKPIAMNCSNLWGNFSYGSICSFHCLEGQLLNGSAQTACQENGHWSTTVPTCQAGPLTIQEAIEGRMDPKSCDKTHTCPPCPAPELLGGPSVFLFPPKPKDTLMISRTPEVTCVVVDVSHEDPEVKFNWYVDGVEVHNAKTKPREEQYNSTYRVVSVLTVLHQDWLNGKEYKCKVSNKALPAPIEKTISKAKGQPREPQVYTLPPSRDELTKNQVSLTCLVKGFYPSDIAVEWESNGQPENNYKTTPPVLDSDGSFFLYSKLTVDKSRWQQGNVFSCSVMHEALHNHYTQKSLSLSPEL
T4 sequence (P16581 with tags, fused parts or gaps limits assumed): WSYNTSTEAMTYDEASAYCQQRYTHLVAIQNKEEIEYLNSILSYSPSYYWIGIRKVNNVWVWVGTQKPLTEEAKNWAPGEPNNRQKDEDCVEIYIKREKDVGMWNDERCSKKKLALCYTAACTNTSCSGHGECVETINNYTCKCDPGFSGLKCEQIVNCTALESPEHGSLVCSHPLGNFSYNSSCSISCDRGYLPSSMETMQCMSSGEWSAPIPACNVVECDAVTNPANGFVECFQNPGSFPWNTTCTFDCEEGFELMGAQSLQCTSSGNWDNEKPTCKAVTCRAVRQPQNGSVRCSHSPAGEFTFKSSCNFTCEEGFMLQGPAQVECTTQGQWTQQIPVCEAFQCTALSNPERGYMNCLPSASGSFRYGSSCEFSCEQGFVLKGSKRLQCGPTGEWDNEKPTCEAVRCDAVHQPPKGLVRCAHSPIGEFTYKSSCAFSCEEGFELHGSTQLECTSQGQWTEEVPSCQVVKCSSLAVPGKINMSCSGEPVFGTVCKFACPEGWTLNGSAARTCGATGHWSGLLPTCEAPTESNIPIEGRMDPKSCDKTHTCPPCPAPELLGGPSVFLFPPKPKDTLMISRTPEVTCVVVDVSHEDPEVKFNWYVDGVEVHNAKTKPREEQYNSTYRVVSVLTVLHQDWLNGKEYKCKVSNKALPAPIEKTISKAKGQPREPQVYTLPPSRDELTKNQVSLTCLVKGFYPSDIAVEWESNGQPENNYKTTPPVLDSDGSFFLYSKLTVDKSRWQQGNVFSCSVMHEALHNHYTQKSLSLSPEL
T3 sequence (P14151 with tags, fused parts or gaps limits assumed): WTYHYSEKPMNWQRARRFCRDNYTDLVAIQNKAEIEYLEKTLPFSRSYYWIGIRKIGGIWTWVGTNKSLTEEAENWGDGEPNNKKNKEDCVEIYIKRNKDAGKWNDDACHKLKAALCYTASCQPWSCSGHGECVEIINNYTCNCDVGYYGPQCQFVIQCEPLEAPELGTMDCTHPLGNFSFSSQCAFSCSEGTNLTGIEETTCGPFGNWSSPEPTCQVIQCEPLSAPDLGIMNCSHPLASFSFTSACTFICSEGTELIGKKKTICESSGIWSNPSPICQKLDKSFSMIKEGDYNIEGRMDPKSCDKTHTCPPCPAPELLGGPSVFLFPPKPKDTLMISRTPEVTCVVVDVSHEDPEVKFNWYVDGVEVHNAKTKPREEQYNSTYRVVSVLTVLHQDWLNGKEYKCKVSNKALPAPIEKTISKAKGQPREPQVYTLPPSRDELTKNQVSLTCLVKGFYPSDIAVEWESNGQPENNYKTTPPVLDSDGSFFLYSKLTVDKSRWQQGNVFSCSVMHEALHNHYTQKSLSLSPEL
T2 sequence (Q01102 with tags, fused parts or gaps limits assumed): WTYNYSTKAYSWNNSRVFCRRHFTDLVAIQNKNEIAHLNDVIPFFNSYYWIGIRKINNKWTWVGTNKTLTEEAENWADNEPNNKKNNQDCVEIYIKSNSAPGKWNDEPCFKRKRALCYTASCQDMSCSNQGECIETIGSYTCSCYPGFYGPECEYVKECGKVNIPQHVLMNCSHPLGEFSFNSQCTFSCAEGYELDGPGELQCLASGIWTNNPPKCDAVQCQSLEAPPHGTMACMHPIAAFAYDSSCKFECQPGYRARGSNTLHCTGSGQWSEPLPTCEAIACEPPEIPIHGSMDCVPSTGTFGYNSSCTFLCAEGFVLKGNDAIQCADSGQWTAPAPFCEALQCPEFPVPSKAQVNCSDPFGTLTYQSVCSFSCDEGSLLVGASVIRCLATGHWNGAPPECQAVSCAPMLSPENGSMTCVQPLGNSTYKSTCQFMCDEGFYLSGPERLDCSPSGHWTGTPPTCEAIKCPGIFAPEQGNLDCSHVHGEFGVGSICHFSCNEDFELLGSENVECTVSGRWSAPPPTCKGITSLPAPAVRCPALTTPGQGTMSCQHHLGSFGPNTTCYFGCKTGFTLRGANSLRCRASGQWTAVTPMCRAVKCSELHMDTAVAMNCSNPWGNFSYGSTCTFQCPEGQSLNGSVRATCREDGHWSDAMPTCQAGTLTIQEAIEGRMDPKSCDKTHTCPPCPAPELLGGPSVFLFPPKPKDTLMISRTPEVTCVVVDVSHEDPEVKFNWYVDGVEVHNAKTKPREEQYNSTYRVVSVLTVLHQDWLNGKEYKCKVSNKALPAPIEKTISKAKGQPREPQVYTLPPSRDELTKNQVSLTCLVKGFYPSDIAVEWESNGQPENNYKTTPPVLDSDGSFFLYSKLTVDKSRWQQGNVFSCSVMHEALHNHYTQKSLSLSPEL

As usually defined, the pIC50 is the negative decadic logarithm of the IC50, by convention in mol/L. As for `O=C(O)c1ccc(O)cc1` [4-hydroxy benzoic acid], the negative logarithm of the IC50 (pIC50) on human P-selectin [1] is less than 3.52.
Consider (−)-epigallocatechin gallate [EGCG], for which the Maximal platelet aggregation entry in the data set on platelets (250 μM) is “no significant inhibition”; in the data set with platelets (500 μM), “inhibit platelet aggregation significantly”. Also, at human P-selectin [1], the pIC50 was 3.94.
On to `O=C(O)c1cc(O)c(O)c(O)c1` [gallic acid, 3,4,5-trihydroxybenzoic acid], for which, in data set [2] (C57/B16 mice (WT), FIG. 8A), the “Conjugate rolling over femoral vein endothelium, number of conjugates rolling per unit of surface” value was “Dose-dependent inhibition”. Moreover, the “Rolling of preformed leukocyte-platelet conjugates, percentage of rolling in absence of gallic acid” value in data set [2] (aged atherosclerotic ApoE-/- mice, FIG. 8B) is “Inhibition”. In data set [2] (mice, at ED50 of rosette tumbling), the “Effective plasma concentration corresponding to ED50” value stood at 40 µM. Also, the “ED50, dose giving half maximal inhibition of rosette tumbling” value in data set [2] (mice, infusion 0.75 to 7.5 mg/kg.h, counted 10 min after collagen injection) was 1.5±0.4 mg/kg.h. In addition, the Maximal platelet aggregation entry with platelets (250 μM) is reported as “no significant inhibition”; with platelets (500 μM), “inhibit platelet aggregation significantly”. Moreover, the “Change of HL60 cell adhesion to CHO-P monolayer vs untreated control” value in data set [3] (50 μM, wall shear rate 300 s^-1) is on record as −34%; in data set [3] (50 μM, wall shear rate 600 s^-1) it was −43%; in data set [3] (250 μM, wall shear rate 300 s^-1), −41%; in data set [3] (250 μM, wall shear rate 600 s^-1), −54%. For the same compound, the “Rolling velocity of HL60 cells across CHO-P monolayer” value in data set [3] (50 and 250 μM) is reported as “doubled”. The pIC50 is approximately 4.07 on human P-selectin [1], 5.14 on human P-selectin [4] and 3.62 on human L-selectin. For the same compound, the “Binding to P-selectin, mouse versus human” value on mouse P-selectin is reported as “species-independent”. In addition, on human E-selectin, the “Inhibition of E-selectin binding” value was “less than 20%”.
For the compound `O=C(O)/C=C/c1ccc(O)c(O)c1` [caffeic acid], the pIC50 on human P-selectin [1] is less than 3.52.
Take `CCCCCCCCCCCCOC(=O)c1cc(O)c(O)c(O)c1` [n-dodecyl gallate]: the Platelet lysis result in the data set on platelets (human platelets, not usable in aggregation test) is on record as “causes platelet lysis”. The pIC50 at human P-selectin [1] is less than 3.52.
